Tests used:
[1] = tested on: T1, GeBCAT1; test: deamination assay, LC-TOF-MS of PFBHA-derivatized keto acid; type: biochemical, Gentiana triflora; details: 120 mM alpha-ketoglutarate, 0.16 mM PLP, 4 mM DTT, 0.1 M Tris-HCl pH 8.0, 33 °C
T1 construct: open reading frame (390 aa, predicted mitochondrial transit peptide) in pEU-FLAG-GST-GW; FLAG-GST tag, no cleavage told; wheat cell-free synthesis, GST-purified
Excerpt: deamination assay, LC-TOF-MS of PFBHA-derivatized keto acid on GeBCAT1 | Km and Vmax values of recombinant GeBCAT1 and GeBCAT2 are shown for different substrates

[2] = tested on: T2, GeBCAT2; test: as above; type: biochemical, Gentiana triflora; details: 120 mM alpha-ketoglutarate, 0.16 mM PLP, 4 mM DTT, 0.1 M Tris-HCl pH 8.0, 33 °C
T2 construct: open reading frame (411 aa, predicted plastid transit peptide) in pEU-FLAG-GST-GW; FLAG-GST tag, no cleavage told; wheat cell-free synthesis, GST-purified
Excerpt: deamination assay, LC-TOF-MS of PFBHA-derivatized keto acid on GeBCAT2 | Km and Vmax values of recombinant GeBCAT1 and GeBCAT2 are shown for different substrates

Km [1]	Km [2]	SMILES
780 ± 280 µM	650 ± 29 µM	CC(C)C[C@H](N)C(=O)O [Leu]
79 ± 15 µM	4570 ± 320 µM	CC(C)[C@H](N)C(=O)O [Val]
88 ± 40 µM	310 ± 15 µM	CC[C@H](C)[C@H](N)C(=O)O [Ile]

Reference: paper PMC12287140, “Branched-chain amino acid catabolism initiates volatile synthesis in Gentiana triflora” (Planta, 2025)
